#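 A five-concentration, 48-hour dose response in 96-well plates underlies each endpoint, interpolated linearly between surrounding concentrations. GI50 is the concentration that inhibits growth by half. TGI denotes the concentration required for complete inhibition of growth.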
# Experiments:
# Experiment in all cases: NCI-60 cell line screen, 48 h
# ACHN renal = system: ACHN renal
# DU-145 prostate = system: DU-145 prostate
# EKVX NSCLC = system: EKVX NSCLC
# KM12 colon = system: KM12 colon
# NCI-H23 lung = system: NCI-H23 lung
# NCI-H460 lung = system: NCI-H460 lung
# SN12C renal = system: SN12C renal
# SR leukemia = system: SR leukemia
# U251 CNS = system: U251 CNS
# UACC-257 melanoma = system: UACC-257 melanoma
Compound,GI50 (ACHN renal) [µM],TGI (ACHN renal) [µM],GI50 (DU-145 prostate) [µM],TGI (DU-145 prostate) [µM],GI50 (EKVX NSCLC) [µM],TGI (EKVX NSCLC) [µM],GI50 (KM12 colon) [µM],TGI (KM12 colon) [µM],GI50 (NCI-H23 lung) [µM],TGI (NCI-H23 lung) [µM],GI50 (NCI-H460 lung) [µM],TGI (NCI-H460 lung) [µM],GI50 (SN12C renal) [µM],TGI (SN12C renal) [µM],GI50 (SR leukemia) [µM],TGI (SR leukemia) [µM],GI50 (U251 CNS) [µM],TGI (U251 CNS) [µM],GI50 (UACC-257 melanoma) [µM],TGI (UACC-257 melanoma) [µM]
CCOC(=O)c1ccc2c(c1)[n+](=O)c(C(C)=O)c(C(F)(F)F)n2[O-],1.59,3.01,1.57,2.96,1.82,3.96,1.47,2.89,1.54,3.43,1.46,2.86,2.01,4.55,0.197,0.625,1.48,3.02,1.76,3.5
CCOC(=O)c1cnn2c3ccccc3n(S(=O)(=O)c3ccc(OC)cc3)c12,0.811,> 100,0.395,> 24.2,0.583,> 100,0.196,21.9,0.393,> 100,0.753,> 100,0.625,> 57.5,0.238,> 100,0.377,> 100,17.1,> 100
COc1cccc(C2C3=C(COC3=O)N(CCO)c3cc4c(cc32)OCO4)c1 (stereo unspecified),3.92,> 50,0.388,–,1.03,> 50,0.192,–,0.589,> 14.2,0.189,–,–,> 50,0.0795,0.227,0.269,> 50,0.124,> 50
COc1ccc(Nc2nc3cc(N)cc(N)c3nc2-c2ccccc2)cc1OC,27.4,> 100,45,> 100,25.6,71.1,14.8,32,26.3,80.1,20.5,> 100,16.7,44.1,2.67,21.8,26,> 100,35.6,> 100
O=C(/C=C/C12c3ccccc3C(c3ccccc31)C1C(=O)NC(=O)C12)c1ccc(Cl)cc1 (stereo unspecified),1.65,3.02,1.67,3.26,1.43,2.87,2.14,5.44,1.78,3.83,1.8,4.31,1.56,3.26,2.15,> 100,1.52,2.99,1.56,3.45
O=C(NCc1ccco1)c1cccc(NC2=C(Cl)C(=O)N(Cc3ccccc3)C2=O)c1,9.18,42.3,5.3,24.7,34.8,> 100,6.49,24.5,14.7,33.3,92.3,> 100,22.1,> 100,2.94,19.9,11.5,60.5,3.86,26.5
COc1cc2c(=O)n(CCN(C)C)c3c4cc5c(cc4ccc3c2cc1OC)OCO5,0.128,0.363,0.199,6.27,0.694,4.7,0.53,4.04,0.212,1.38,0.123,0.592,0.226,> 50,0.0557,3.78,0.153,1.92,0.413,1.52
Oc1[nH]c2ccccc2c1N=Nc1c(F)c(F)c(F)c(F)c1F,–,36.8,–,> 100,–,> 100,–,> 61.9,–,> 100,–,> 100,–,> 55.7,–,14.4,–,> 100,–,> 71.5
COc1cc(/C=C/c2cc(/C=C/c3ccc(O)c(OC)c3)n(C(=O)Nc3ccc(Cl)cc3)n2)ccc1O,0.52,11.4,0.382,1.67,1.61,9.62,0.354,1.84,0.494,2.36,0.327,1.85,0.455,21.6,0.106,–,0.525,5.33,1.26,6.81
O=c1cc(-c2ccccc2)oc2cc(OC/C(=N/O)c3ccc(F)cc3)ccc12,19.2,> 50,18.1,> 50,17.2,> 50,11.3,29.2,31.8,> 50,12.9,44.2,15.5,> 50,23,> 50,22,> 50,35.3,> 50
Cc1cc(Nc2cc(N3CCN(C)CC3)nc(Sc3ccc(NC(=O)C4CC4)cc3)n2)n[nH]1,> 10,> 10,> 10,> 10,> 10,> 10,0.0461,> 10,3.19,> 10,0.537,> 10,3.59,> 10,0.0594,> 10,3.05,> 10,3.52,> 10
N#CN1CC[C@H](C(=O)Nc2cc3cc(C(N)=O)ccc3cn2)C1,0.333,–,0.357,> 65.4,0.258,6.87,0.0566,12,0.13,2.05,0.188,> 44,0.117,46.7,0.0347,–,0.0815,38.4,0.22,0.904
Cn1c(=S)c2[nH]c(SCCN3C(=O)c4ccccc4C3=O)nc2n(C)c1=O,–,> 100,–,> 100,–,> 100,–,> 100,–,> 100,–,> 100,–,> 100,–,> 100,–,> 100,–,> 100
Cc1ccc(-c2nc(-c3cn(C)c4ncccc34)cs2)cc1,7.65,29.2,7.42,21.3,4.61,43.7,1.2,14,7.12,31.3,3.43,14.9,5,22.8,0.442,21.8,4.4,17,9.41,28
COc1ccccc1NS(=O)(=O)c1ccc2oc(SC(C)C)nc2c1,21,> 100,31.8,> 100,6.4,78.7,18.5,49,8.66,> 100,15.7,> 100,15.5,34.5,3.62,24.4,33.1,> 100,1.76,19.1
CN(C)c1ccc(/C=c2/c3ccccc3n3c2c2cc(F)ccc2[n+]3C)cc1,34.6,> 100,5.07,18.4,4.29,20.1,4.28,19.4,14.1,30.9,4.72,26.6,–,2.7,0.0501,1.23,0.905,–,4.31,11.8
CCS(=O)(=O)c1ccc(OC)c(Nc2ncc(-c3ccccc3Cl)o2)c1,> 19.1,> 25,10.1,> 25,> 21.3,> 25,7.59,> 25,7.89,> 25,> 17.7,> 25,14.9,> 25,15.5,> 25,18.1,> 25,> 25,> 25
Cc1cccc(NC(=O)/C=C/c2ccc([N+](=O)[O-])cc2)c1,–,28.8,–,> 55,–,> 56.5,–,> 52.8,–,31.7,–,> 64.5,–,> 58.2,–,> 24.5,–,> 52.9,–,> 55.1
Cc1cnc(Nc2ccc(N3CCN(C)CC3)cc2)nc1Nc1ccc(Cl)c(NS(=O)(=O)C(C)(C)C)c1,0.0902,2.2,0.303,11,0.311,4.4,0.0943,5.39,0.379,6.55,0.267,10.3,0.542,12,0.092,6.26,0.84,11.7,1.36,2.88
NNC(=O)c1ccc(OCc2nc3ccccc3[nH]2)cc1,–,> 100,–,> 100,–,> 100,–,> 100,–,> 100,–,> 100,–,> 100,–,> 100,–,> 100,–,> 100
COc1ccc(/C=C\c2cc(OC)c(OC)c(OC)c2)cc1OCC(=O)Nc1ccc2nc(C)sc2c1,3.12,10.9,3.81,29.7,4.05,> 100,3.79,14.8,2.53,7.95,3.36,33.2,3.53,> 100,2.93,> 100,3.59,> 100,1.73,3.4
